Test results reported in US20260207623A1, “USE OF ESTETROL IN HEPATICALLY IMPAIRED PATIENTS” (ESTETRA SRL, priority 2022, published 2026).
Read-outs that look alike come from different tables or passages of the source.

Experiment: Phase 1 pharmacokinetic study of a single oral dose of 20 mg E4 monohydrate in female subjects with normal hepatic function and mild, moderate or severe hepatic impairment (plasma, LC-MS/MS, non-compartmental analysis)
Format: in vivo, human
Settings: for AUC0-24 h, GM / CL/F, GM / CL/F, Mean / CL/F, Median / Cmax, Mean / λz, GM / λz, Mean / λz, Median / Tmax / AUC(0-inf) / Cmax / AUC(0-t) / half-life / Vd/F: plasma; for Tmax / AUC(0-inf) / Cmax / AUC(0-t) / half-life / Vd/F: female, human, 20 mg
Procedure: This was a Phase 1, multi-centre, open-label, PK, and safety study of a single oral dose of 20 mg E4 monohydrate in female subjects with normal hepatic function (Group 1), mild hepatic impairment (Group 2), moderate hepatic impairment (Group 3), and severe hepatic impairment (Group 4), as defined using the Child-Pugh classification at Screening.
The study consisted of an eligibility Screening period (within 28 days prior to study drug administration), an Assessment Period with in-house period and outpatient visits (including a single oral dose of 20 mg E4 on Day 1), and a follow up visit. All subjects were confined to the study site from Day-1 (the day before dosing) until Day 4 and returned to the site every day from Day 5 to Day 9. Alternatively, the subjects could stay for a prolonged in-house period in agreement with the Investigator. The follow-up visit occurred on Day 14 (+2 days).
All subjects arrived at the study site in the morning of Day-1 in a fasted state (no food for at least 8 h, water was allowed) to have the scheduled assessments performed in order to confirm eligibility as outlined in the inclusion and exclusion criteria (Section 2.3.1 and Section 2.3.2, respectively). In the morning of Day 1 following an overnight fast, the subjects received oral dosing of 20 mg E4 monohydrate and remained at the site. Study-related assessments were performed at time points indicated in the Schedule of Assessments in Table 2.
Serial blood sampling for PK assessments started on Day 1 and proceeded until Day 9 according to the Pharmacokinetic Sampling Schedule presented in Table 3.
Each enrolled subject was to receive a single oral dose of 20 mg of E4 (estetrol) as monohydrate as a film-coated tablet.
Study drug was administered to subjects in the morning after an overnight fast of at least 8 h.
Calculation of non-compartmental PK parameters were done using WinNonlin™ Professional, Version 6.3 or higher.
The primary PK parameters to be analyzed for E4 in plasma: • Cmax=maximum observed plasma concentration • AUCinf=area under the concentration-time curve (AUC) from time zero extrapolated to infinity
The analysis of E4 and the metabolites E4-3-glucuronide and E4-16-glucuronide in plasma samples were performed at the Bioanalytical Laboratory of the CRO using a validated liquid chromatography-mass spectrometry/mass spectrometry method.
Individual and mean plasma concentrations at each sampling time point for E4 are presented by listings and descriptive summary statistics including means, geometric means (GMs), medians, ranges, standard deviations (SD) and coefficients of variation (CV). Individual, mean and/or median concentrations per hepatic function group were plotted versus time on semilogarithmic scales.
PK parameters were calculated by non-compartmental analysis. PK parameters were analysed using descriptive statistics and are presented by hepatic function group.
Analysis of variance (ANOVA) were used to compare primary PK parameters of E4 (Cmax and AUCinf) between subjects with hepatic impairment and subjects with normal hepatic function in an exploratory approach, using the log-transformed value of each PK parameter as dependent variable, and the hepatic impairment group (normal, mild, moderate, and severe) as a fixed classification factor. Geometric least squares means were used to calculate the ratios of primary PK parameters for each hepatic impairment group to those in the control group, along with 90% confidence intervals (CIs).
Additionally, the impact of age and BMI on the effect of hepatic impairment were evaluated using an ANOVA model similar as the ANOVA model described above, but with the interaction between each factor and the hepatic impairment group included as an additional factor.
The relationship between log-transformed PK parameters (Cmax and AUCinf) and continuous parameters (albumin, total bilirubin, and prothrombin time) used for the Child-Pugh score was explored by a linear regression approach. […]

[1] = Mild hepatic impairment, single oral dose 20 mg E4 monohydrate
[2] = Moderate hepatic impairment, single oral dose 20 mg E4 monohydrate
[3] = Moderate vs. Normal, one-way ANOVA
[4] = Normal hepatic function, single oral dose 20 mg E4 monohydrate
[5] = Severe hepatic impairment, single oral dose 20 mg E4 monohydrate
[6] = Severe vs. Normal, one-way ANOVA

C[C@]12CC[C@@H]3c4ccc(O)cc4CC[C@H]3[C@@H]1[C@@H](O)[C@@H](O)[C@@H]2O [E4, 1,3,5 (10)-estratrien-3,15alpha, 16alpha, 17beta-tetrol]
AUC0-24 h, GM [1]: 69.76 ng·h/mL | CL/F, GM [1]: 171.23 L/h | CL/F, Mean [1]: 177.13 L/h | CL/F, Median [1]: 188.75 L/h | Cmax, Mean [1]: 38.363 ng/mL | λz, GM [1]: 0.0300 h⁻¹ | λz, Mean [1]: 0.0373 h⁻¹ | λz, Median [1]: 0.0428 h⁻¹ | AUCinf, Geometric Mean Ratio (Test/Reference) Estimate (Mild vs. Normal, one-way ANOVA): 1.120 | Cmax, Geometric Mean Ratio (Test/Reference) Estimate (Mild vs. Normal, one-way ANOVA): 1.661 | AUC0-24 h, GM [2]: 88.75 ng·h/mL | CL/F, GM [2]: 185.80 L/h | CL/F, Mean [2]: 214.77 L/h | CL/F, Median [2]: 175.13 L/h | Cmax, Mean [2]: 52.410 ng/mL | λz, GM [2]: 0.0500 h⁻¹ | λz, Mean [2]: 0.0520 h⁻¹ | λz, Median [2]: 0.0493 h⁻¹ | AUCinf, Geometric Mean Ratio (Test/Reference) Estimate [3]: 1.032 | Cmax, Geometric Mean Ratio (Test/Reference) Estimate [3]: 1.896 | AUC0-24 h, GM [4]: 60.41 ng·h/mL | CL/F, GM [4]: 191.77 L/h | CL/F, Mean [4]: 200.09 L/h | CL/F, Median [4]: 177.60 L/h | Cmax, Mean [4]: 23.878 ng/mL | λz, GM [4]: 0.0300 h⁻¹ | λz, Mean [4]: 0.0329 h⁻¹ | λz, Median [4]: 0.0307 h⁻¹ | AUC0-24 h, GM [5]: 179.05 ng·h/mL | CL/F, GM [5]: 101.25 L/h | CL/F, Mean [5]: 104.83 L/h | CL/F, Median [5]: 111.40 L/h | Cmax, Mean [5]: 117.025 ng/mL | λz, GM [5]: 0.0800 h⁻¹ | λz, Mean [5]: 0.0905 h⁻¹ | λz, Median [5]: 0.1108 h⁻¹ | AUCinf, Geometric Mean Ratio (Test/Reference) Estimate [6]: 1.894 | Cmax, Geometric Mean Ratio (Test/Reference) Estimate [6]: 5.359 | plasma levels at 24 h after administration (comparison among hepatic function groups): in the same range among the different hepatic function groups | Tmax (oral, across all hepatic function groups, read-out: Tmax, range): 0.23 to 1.92 h | Tmax (oral, all hepatic function groups, read-out: Median Tmax, range over the hepatic function groups): 0.25 to 0.5 h | AUC(0-inf) (po, Mild (Test), one-way ANOVA, single oral dose 20 mg, read-out: AUCinf, Geometric LS Mean): 117 ng·h/mL | Cmax (po, Mild (Test), one-way ANOVA, single oral dose 20 mg, read-out: Cmax, Geometric LS Mean): 34.5 ng/mL | AUC(0-t) (po, Mild hepatic impairment, single oral dose 20 mg E4 monohydrate, read-out: AUC0-24 h, GM): 69.8 ng·h/mL | AUC(0-t) (po, Mild hepatic impairment, single oral dose 20 mg E4 monohydrate, read-out: AUC0-24 h, Mean): 72.9 ng·h/mL | AUC(0-t) (po, Mild hepatic impairment, single oral dose 20 mg E4 monohydrate, read-out: AUC0-24 h, Median): 66.3 ng·h/mL | AUC(0-inf) (po, Mild hepatic impairment, single oral dose 20 mg E4 monohydrate, read-out: AUCinf, GM): 117 ng·h/mL | AUC(0-inf) (po, Mild hepatic impairment, single oral dose 20 mg E4 monohydrate, read-out: AUCinf, Mean): 122 ng·h/mL | AUC(0-inf) (po, Mild hepatic impairment, single oral dose 20 mg E4 monohydrate, read-out: AUCinf, Median): 106 ng·h/mL | AUC(0-t) (po, Mild hepatic impairment, single oral dose 20 mg E4 monohydrate, read-out: AUClast, GM): 116 ng·h/mL | AUC(0-t) (po, Mild hepatic impairment, single oral dose 20 mg E4 monohydrate, read-out: AUClast, Mean): 121 ng·h/mL | AUC(0-t) (po, Mild hepatic impairment, single oral dose 20 mg E4 monohydrate, read-out: AUClast, Median): 105 ng·h/mL | Cmax (po, Mild hepatic impairment, single oral dose 20 mg E4 monohydrate, read-out: Cmax, GM): 34.5 ng/mL | Cmax (po, Mild hepatic impairment, single oral dose 20 mg E4 monohydrate, read-out: Cmax, Mean): ~38 ng/mL | Cmax (po, Mild hepatic impairment, single oral dose 20 mg E4 monohydrate, read-out: Cmax, Median): 34.9 ng/mL | half-life (po, Mild hepatic impairment, single oral dose 20 mg E4 monohydrate, read-out: T1/2, GM (converted)): 20.1 h | half-life (po, Mild hepatic impairment, single oral dose 20 mg E4 monohydrate, read-out: T1/2, Mean (converted)): 22.1 h | half-life (po, Mild hepatic impairment, single oral dose 20 mg E4 monohydrate, read-out: T1/2, Median (converted)): 16.2 h | Tmax (po, Mild hepatic impairment, single oral dose 20 mg E4 monohydrate, read-out: Tmax, Median): 0.375 h | Vd/F (po, Mild hepatic impairment, single oral dose 20 mg E4 monohydrate, read-out: Vz/F, GM): 4960 L | Vd/F (po, Mild hepatic impairment, single oral dose 20 mg E4 monohydrate, read-out: Vz/F, Mean): 5830 L | Vd/F (po, Mild hepatic impairment, single oral dose 20 mg E4 monohydrate, read-out: Vz/F, Median): 4800 L | AUC(0-inf) (po, Moderate (Test), one-way ANOVA, single oral dose 20 mg, read-out: AUCinf, Geometric LS Mean): 108 ng·h/mL | Cmax (po, Moderate (Test), one-way ANOVA, single oral dose 20 mg, read-out: Cmax, Geometric LS Mean): 39.4 ng/mL | AUC(0-t) (po, Moderate hepatic impairment, single oral dose 20 mg E4 monohydrate, read-out: AUC0-24 h, GM): 88.8 ng·h/mL | AUC(0-t) (po, Moderate hepatic impairment, single oral dose 20 mg E4 monohydrate, read-out: AUC0-24 h, Mean): 103 ng·h/mL | AUC(0-t) (po, Moderate hepatic impairment, single oral dose 20 mg E4 monohydrate, read-out: AUC0-24 h, Median): 92.6 ng·h/mL | AUC(0-inf) (po, Moderate hepatic impairment, single oral dose 20 mg E4 monohydrate, read-out: AUCinf, GM): 108 ng·h/mL | AUC(0-inf) (po, Moderate hepatic impairment, single oral dose 20 mg E4 monohydrate, read-out: AUCinf, Mean): 123 ng·h/mL | AUC(0-inf) (po, Moderate hepatic impairment, single oral dose 20 mg E4 monohydrate, read-out: AUCinf, Median): 115 ng·h/mL | AUC(0-t) (po, Moderate hepatic impairment, single oral dose 20 mg E4 monohydrate, read-out: AUClast, GM): 107 ng·h/mL
